The values below are quoted from earlier work in publication PMC12308805, “Ultrahigh-Throughput Virtual Screening Strategies against PPI Targets: A Case Study of STAT Inhibitors” (Journal of Chemical Information and Modeling, 2025).

The test system of one series is STAT3. Particulars: sheet 6QHD_actives_decoys; retrospective screening set for STAT3 SH2 domain (PDB 6QHD); […]; ref DUD-E; cited from earlier work.
For the molecule `CCOC(=O)C1=C(SC)S[C@@H](/C(C(=O)OCC)=C2/NN=C(c3ccccc3)O2)N=C1N` [Decoy644], the Type entry is on record as “Inactive (Decoy)”.

As for `CCCNC(=O)CN1CCN(c2cc(C(=O)O)c3cc(NS(=O)(=O)c4cccc(C)c4)ccc3n2)CC1` [Decoy646], the Type entry is “Inactive (Decoy)”.

As for `NCCNC(=O)Cc1ccc(NC(=O)Cc2ccc(Nc3ncnc4c3ncn4[C@@H]3O[C@H](CO)[C@@H](O)[C@H]3O)cc2)cc1` [Decoy655], the Type entry is “Inactive (Decoy)”.

Take `O=C(Nc1ccc([N+](=O)[O-])cc1[N+](=O)[O-])[C@@](F)(OC(F)(F)[C@@](F)(OC(F)(F)C(F)(F)C(F)(F)F)C(F)(F)F)C(F)(F)F` [Decoy658]: the Type entry was “Inactive (Decoy)”.

Staying with this series, now noted: sheet 6QHD_actives_decoys; retrospective screening set for STAT3 SH2 domain (PDB 6QHD); decoys generated with DUD-E and presumed inactive, not tested; ref DUD-E; cited from earlier work.
With `Cc1nn(C)c(C)c1CCCN(C)c1ccc(NS(=O)(=O)c2ccc(C(C)C)cc2)cc1C(=O)O` [Decoy642], the Type entry is “Inactive (Decoy)”.

As for `CC(=O)OC[C@H]1O[C@@H](O[C@@]2(CO)O[C@@H](CO)[C@@H](OC(C)=O)[C@H]2OC(C)=O)[C@@H](OC(C)=O)[C@@H](OC(C)=O)[C@@H]1O` [Decoy643], the Type result is “Inactive (Decoy)”.

On to `CCOc1ccc([C@@H]2C(C(=O)c3ccc(Cl)cc3)=C(O)C(=O)N2CCCn2ccnc2)cc1OCC` [Decoy645], for which the Type entry is listed as “Inactive (Decoy)”.

In the case of `COc1cc([C@@H]2C(C(=O)c3ccc4c(c3)OCCO4)=C(O)C(=O)N2CCCn2ccnc2)cc(Br)c1O` [Decoy647], the Type result was “Inactive (Decoy)”.

For the molecule `OCCN(CCO)C1=N[C@@H]2C(N3CCCCC3)=NC(N(CCO)CCO)=N[C@@H]2C(N2CCCCC2)=N1` [Decoy648], the Type entry is “Inactive (Decoy)”.

For the molecule `CC[C@@H](C)[C@@H](NC(=O)CNC(=O)CCc1c(C)c2cc3c(C)coc3c(C)c2oc1=O)C(=O)O` [Decoy649], the Type result was “Inactive (Decoy)”.

For `CC[C@H](C)[C@@H](NC(=O)CNC(=O)CCc1c(C)c2cc3c(C)coc3c(C)c2oc1=O)C(=O)O` [Decoy650], the Type entry was “Inactive (Decoy)”.

Turning to `COc1cc(NC(=S)/N=C(\NCCc2c[nH]cn2)Nc2nc(C)cc(C)n2)c(OC)cc1Cl` [Decoy651], the Type entry was “Inactive (Decoy)”.

On to `O=C(O)CN(CC(=O)O)CC1=C[C@H]2C(=CC1=O)Oc1cc(O)c(CN(CC(=O)O)CC(=O)O)cc1[C@@]21OC(=O)c2ccccc21` [Decoy652], for which the Type result was “Inactive (Decoy)”.

With `Cc1ccc(S(=O)(=O)NCCN(CCN(CCNS(=O)(=O)c2ccc(C)cc2)S(=O)(=O)c2ccc(C)cc2)S(=O)(=O)c2ccc(C)cc2)cc1` [Decoy653], the Type result is “Inactive (Decoy)”.

With `CCOC(=O)c1sc(Nc2ccc(NC(=O)C[C@@H](NCCOC)C(=O)O)cc2)nc1C` [Decoy654], the Type result is “Inactive (Decoy)”.

With `O=C(NCCCCCCNC(=O)N(CCO)[C@H]1CCS(=O)(=O)C1)N(CCO)[C@@H]1CCS(=O)(=O)C1` [Decoy656], the Type result is on record as “Inactive (Decoy)”.

As for `CC[C@@H](O)[C@@](C)(O)/C=C(\C)C(=O)[C@H](C)C[C@@](C)(OC)[C@H](O[C@@H]1O[C@H](C)C[C@H](N(C)C)[C@H]1O)[C@@H](C)[C@H](O[C@H]1C[C@@](C)(OC)[C@@H](O)[C@H](C)O1)[C@@H](C)C(=O)O` [Decoy657], the Type result was “Inactive (Decoy)”.

In the case of `COc1cc(NS(=O)(=O)c2ccc(NC(=S)NC(=O)/C=C/c3cccc4ccccc34)cc2)ncn1` [Decoy659], the Type result is recorded as “Inactive (Decoy)”.

Regarding `CC(=O)O[C@@H]1[C@@H](O)[C@@H](O[C@@H](/C=N\N2CCOCC2)[C@@H](CO)O[C@H](O)/C=N/N2CCOCC2)O[C@@H](CO)[C@H]1O` [Decoy660], the Type result is “Inactive (Decoy)”.

Take `COc1ccc(-c2cc(=O)c3c(O)c(OC)c(O[C@@H]4O[C@H](CO[C@@H]5O[C@@H](C)[C@H](O)[C@@H](O)[C@H]5O)[C@@H](O)[C@H](O)[C@H]4O)cc3o2)cc1` [Decoy661]: the Type entry is reported as “Inactive (Decoy)”.

Turning to `C=C[C@](C)(O)CC/C=C(\C)C(=O)OC[C@H]1O[C@@H](O[C@@](C)(C=C)CC/C=C(\C)C(=O)O)[C@H](O)[C@@H](OC(=O)/C(C)=C/CC[C@](C)(O)C=C)[C@@H]1O` [Decoy662], the Type result is “Inactive (Decoy)”.
